Values joined by “and” are separate entries in the source; they are usually repeats but may differ in a detail not shown here. Equal entries are not always repeated. Inconclusive results and toxic doses are left out.
System: BDF1 mice, P388 leukemia ip, median survival T/C
Assay: NCI In Vivo Anticancer Drug Screen. Data for tumor model P388 Leukemia (intraperitoneal) in B6D2F1 (BDF1) mice
Conditions: endpoint: median survival time, higher = longer survival
In short: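 Survival ratio, drug arm over vehicle arm, in mice with a transplanted tumour.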

[1] = dose: 2.5 mg/kg/injection, schedule: Q01DX009 (ip), vehicle: Klucel (hydroxypropylcellulose) (HPC)
[2] = dose: 50.0 mg/kg/injection, schedule: Q01DX009 (ip), vehicle: saline with Tween-80
[3] = dose: 100.0 mg/kg/injection, schedule: Q01DX009 (ip), vehicle: saline with Tween-80
[4] = dose: 200.0 mg/kg/injection, schedule: Q01DX009 (ip), vehicle: saline with Tween-80
[5] = dose: 100.0 mg/kg/injection, schedule: Q04DX003 (ip), vehicle: saline
[6] = dose: 200.0 mg/kg/injection, schedule: Q04DX003 (ip), vehicle: saline
[7] = dose: 400.0 mg/kg/injection, schedule: Q04DX003 (ip), vehicle: saline
[8] = dose: 100.0 mg/kg/injection, schedule: Q04DX003 (ip), vehicle: Klucel (hydroxypropylcellulose) (HPC)
[9] = dose: 200.0 mg/kg/injection, schedule: Q04DX003 (ip), vehicle: Klucel (hydroxypropylcellulose) (HPC)
[10] = dose: 400.0 mg/kg/injection, schedule: Q04DX003 (ip), vehicle: Klucel (hydroxypropylcellulose) (HPC)
[11] = dose: 100.0 mg/kg/injection, schedule: Q04DX003 (ip), vehicle: saline with Tween-80
[12] = dose: 200.0 mg/kg/injection, schedule: Q04DX003 (ip), vehicle: saline with Tween-80
[13] = dose: 400.0 mg/kg/injection, schedule: Q04DX003 (ip), vehicle: saline with Tween-80
[14] = dose: 400.0 mg/kg/injection, schedule: Q01DX009 (ip), vehicle: saline with Tween-80

Compound: CC(C)=CCOc1ccc(C(=O)/C=C/c2ccccc2)c(O)c1
- T/C (dose: 1.25 mg/kg/injection, schedule: Q01DX009 (ip), vehicle: Klucel (hydroxypropylcellulose) (HPC)): 108 % of control
- T/C [1]: 101 % of control
- T/C (dose: 5.0 mg/kg/injection, schedule: Q01DX009 (ip), vehicle: Klucel (hydroxypropylcellulose) (HPC)): 107 % of control
- T/C (dose: 10.0 mg/kg/injection, schedule: Q01DX009 (ip), vehicle: Klucel (hydroxypropylcellulose) (HPC)): 91 % of control
- T/C (dose: 20.0 mg/kg/injection, schedule: Q01DX009 (ip), vehicle: Klucel (hydroxypropylcellulose) (HPC)): 104 % of control
- T/C (dose: 40.0 mg/kg/injection, schedule: Q01DX009 (ip), vehicle: Klucel (hydroxypropylcellulose) (HPC)): 89 % of control

Compound: Cc1ccc(S(=O)(=O)OCC2C3CCCC2C3)cc1 (stereo not given)
- T/C [2]: 101 % of control
- T/C [3]: 100 % of control
- T/C [4]: 96 % of control

Compound: CCOC(=O)CCOCOCCC(=O)OCC
- T/C [5]: 100 % of control
- T/C [6]: 95 % of control
- T/C [7]: 95 % of control

Compound: CC12OC1C(=O)c1ccccc1C2=O (stereo not given)
- T/C (dose: 0.75 mg/kg/injection, schedule: Q01DX009 (ip), vehicle: Klucel (hydroxypropylcellulose) (HPC)): 87 % of control
- T/C (dose: 1.5 mg/kg/injection, schedule: Q01DX009 (ip), vehicle: Klucel (hydroxypropylcellulose) (HPC)): 100 % of control
- T/C [1]: 89 % of control
- T/C (dose: 3.0 mg/kg/injection, schedule: Q01DX009 (ip), vehicle: Klucel (hydroxypropylcellulose) (HPC)): 95 % of control
- T/C (dose: 5.0 mg/kg/injection, schedule: Q04DX003 (ip), vehicle: Klucel (hydroxypropylcellulose) (HPC)): 92 % of control
- T/C (dose: 10.0 mg/kg/injection, schedule: Q04DX003 (ip), vehicle: Klucel (hydroxypropylcellulose) (HPC)): 92 % of control

Compound: CC(=O)OCC(=O)[C@@]1(O)CC[C@H]2[C@@H]3CCC4=CC(=O)C=C[C@]4(C)[C@H]3[C@@H](O)C[C@@]21C
- T/C (dose: 25.0 mg/kg/injection, schedule: Q01DX009 (ip), vehicle: saline): 91 % of control
- T/C (dose: 50.0 mg/kg/injection, schedule: Q01DX009 (ip), vehicle: saline): 91 % of control
- T/C [5]: 109 % of control

Compound: C[Si](C)(C)O/C=C1\CCCCC1=O
- T/C (dose: 25.0 mg/kg/injection, schedule: Q01DX009 (ip), vehicle: saline with Tween-80): 110 % of control
- T/C [3]: 117 % of control

Compound: CCOC(=O)N1CCN(CCCCCOc2ccccc2C2CCCCC2)CC1
- T/C [2]: 111 % of control
- T/C [3]: 120 % of control

Compound: Cc1ccc(NS(=O)(=O)c2ccc(F)cc2)c(C)c1
- T/C [8]: 100 % of control
- T/C [9]: 100 % of control
- T/C [10]: 100 % of control

Compound: O=C(NC(Cc1ccccc1)C(=O)O)OCc1ccccc1 (stereo not given)
- T/C [3]: 120 % of control
- T/C [11]: 92 % of control
- T/C [12]: 100 % of control
- T/C [13]: 107 % of control

Compound: O=C(O)c1cc(C(=O)O)cc(S(=O)(=O)F)c1
- T/C (dose: 75.0 mg/kg/injection, schedule: Q04DX003 (ip), vehicle: saline with Tween-80): 104 % of control
- T/C [3]: 105 % of control
- T/C (dose: 150.0 mg/kg/injection, schedule: Q04DX003 (ip), vehicle: saline with Tween-80): 108 % of control
- T/C [4]: 95 % of control
- T/C (dose: 300.0 mg/kg/injection, schedule: Q04DX003 (ip), vehicle: saline with Tween-80): 104 % of control

Compound: CCOC(=O)C(CC(OCC)OCC)C(=O)OCC
- T/C [3]: 100 % of control
- T/C [11]: 104 % of control
- T/C [4]: 91 % of control
- T/C [12]: 113 % of control
- T/C [14]: 122 % of control
- T/C [13]: 113 % of control

Compound: Oc1cc(N2CC2)c(O)cc1N1CC1
- T/C (dose: 0.02 mg/kg/injection, schedule: Q01DX009 (ip), vehicle: saline): 150 % of control
- T/C (dose: 0.03 mg/kg/injection, schedule: Q01DX009 (ip), vehicle: saline): 154 % of control
- T/C (dose: 0.1 mg/kg/injection, schedule: Q01DX009 (ip), vehicle: saline): 171 % of control
- T/C (dose: 0.13 mg/kg/injection, schedule: Q01DX009 (ip), vehicle: saline): 200 % of control and 213 % of control
- T/C (dose: 0.2 mg/kg/injection, schedule: Q01DX009 (ip), vehicle: saline): 186 % of control and 204 % of control
- T/C (dose: 0.3 mg/kg/injection, schedule: Q01DX009 (ip), vehicle: saline): 204 % of control
- T/C (dose: 0.44 mg/kg/injection, schedule: Q01DX009 (ip), vehicle: saline): 200 % of control
- T/C (dose: 0.47 mg/kg/injection, schedule: Q04DX003 (ip), vehicle: saline): 150 % of control
- T/C (dose: 0.68 mg/kg/injection, schedule: Q01DX009 (ip), vehicle: saline): 263 % of control
- T/C (dose: 0.72 mg/kg/injection, schedule: Q04DX003 (ip), vehicle: saline): 200 % of control
- T/C (dose: 1.0 mg/kg/injection, schedule: Q01DX009 (ip), vehicle: saline): 268 % of control
- T/C (dose: 1.08 mg/kg/injection, schedule: Q04DX003 (ip), vehicle: saline): 220 % of control
- T/C (dose: 1.65 mg/kg/injection, schedule: Q04DX003 (ip), vehicle: saline): 225 % of control
- T/C (dose: 2.5 mg/kg/injection, schedule: Q04DX003 (ip), vehicle: saline): 225 % of control and 150 % of control
- T/C (dose: 3.75 mg/kg/injection, schedule: Q04DX003 (ip), vehicle: saline): 90 % of control
- T/C (dose: 16.0 micrograms/kg/injection, schedule: Q01DX009 (ip), vehicle: saline): 105 % of control
- T/C (dose: 25.0 micrograms/kg/injection, schedule: Q01DX009 (ip), vehicle: saline): 102 % of control
- T/C (dose: 38.0 micrograms/kg/injection, schedule: Q01DX009 (ip), vehicle: Klucel (hydroxypropylcellulose) (HPC)): 190 % of control
- T/C (dose: 58.0 micrograms/kg/injection, schedule: Q01DX009 (ip), vehicle: Klucel (hydroxypropylcellulose) (HPC)): 200 % of control
- T/C (dose: 88.0 micrograms/kg/injection, schedule: Q01DX009 (ip), vehicle: saline): 179 % of control
- T/C (dose: 132.0 micrograms/kg/injection, schedule: Q01DX009 (ip), vehicle: saline): 120 % of control

Compound: CCCCCCCCCCOP(=O)(O)OCCCCCCCCCC
- T/C (dose: 12.5 mg/kg/injection, schedule: Q01DX009 (ip), vehicle: Klucel (hydroxypropylcellulose) (HPC)): 95 % of control
- T/C (dose: 25.0 mg/kg/injection, schedule: Q01DX009 (ip), vehicle: Klucel (hydroxypropylcellulose) (HPC)): 99 % of control
- T/C (dose: 50.0 mg/kg/injection, schedule: Q01DX009 (ip), vehicle: Klucel (hydroxypropylcellulose) (HPC)): 95 % of control

Compound: O=CNNc1ccc([N+](=O)[O-])cc1
- T/C (dose: 100.0 mg/kg/injection, schedule: Q01DX009 (ip), vehicle: Klucel (hydroxypropylcellulose) (HPC)): 90 % of control
- T/C [8]: 105 % of control
- T/C (dose: 200.0 mg/kg/injection, schedule: Q01DX009 (ip), vehicle: Klucel (hydroxypropylcellulose) (HPC)): 100 % of control
- T/C [9]: 100 % of control
- T/C (dose: 400.0 mg/kg/injection, schedule: Q01DX009 (ip), vehicle: Klucel (hydroxypropylcellulose) (HPC)): 104 % of control
- T/C [10]: 105 % of control

Compound: O=C(c1cc(C(F)(F)F)cc(C(F)(F)F)c1)N1CC1
- T/C (dose: 3.12 mg/kg/injection, schedule: Q01DX009 (ip), vehicle: water): 100 % of control
- T/C (dose: 6.25 mg/kg/injection, schedule: Q01DX009 (ip), vehicle: water): 105 % of control
- T/C (dose: 12.5 mg/kg/injection, schedule: Q01DX009 (ip), vehicle: water): 114 % of control
- T/C (dose: 25.0 mg/kg/injection, schedule: Q01DX009 (ip), vehicle: water): 100 % of control
- T/C (dose: 50.0 mg/kg/injection, schedule: Q01DX009 (ip), vehicle: water): 110 % of control

Compound: O=CNc1ccc(C(=O)O)cc1
- T/C [11]: 100 % of control
- T/C [12]: 104 % of control
- T/C [13]: 91 % of control

Compound: CCC[S-].CCC[S-].[C-]#[O+].[C-]#[O+].[C-]#[O+].[C-]#[O+].[Rh].[Rh]
- T/C [11]: 122 % of control
- T/C [4]: 90 % of control
- T/C [12]: 122 % of control
- T/C [14]: 100 % of control
- T/C [13]: 122 % of control

Compound: CCc1c(/C=C2/OC(=O)NC2=O)[nH]c(=S)[nH]c1=O
- T/C [11]: 100 % of control
- T/C [12]: 91 % of control
- T/C [13]: 104 % of control

Compound: CCCCC1(CC)COC(C)(Cc2ccccc2)OC1 (stereo not given)
- T/C (dose: 100.0 mg/kg/injection, schedule: Q01DX009 (ip), vehicle: saline): 100 % of control
- T/C [5]: 104 % of control
- T/C (dose: 200.0 mg/kg/injection, schedule: Q01DX009 (ip), vehicle: saline): 100 % of control
- T/C [6]: 100 % of control
- T/C (dose: 400.0 mg/kg/injection, schedule: Q01DX009 (ip), vehicle: saline): 90 % of control
- T/C [7]: 104 % of control
